Data reported in ChEMBL document CHEMBL4402534, “Dihydroorotate dehydrogenase inhibitors in anti-infective drug research” (Eur J Med Chem, 2019).
In brackets after ≈: the same amount, converted by molar mass.

What was measured:
[1] = Inhibition of Helicobacter pylori DHODH
Helicobacter pylori = assay: Antibacterial activity against Helicobacter pylori by whole cell-based assay; type: functional
[2] = target: T1, Dihydroorotate dehydrogenase (quinone), mitochondrial (Homo sapiens, UniProt Q02127); assay: Inhibition of DHODH (unknown origin)
[3] = tested on: Western equine encephalitis virus; assay: Antiviral activity against Western equine encephalomyelitis virus infected in human A549 cells assessed as reduction in virus replication; type: functional, organism-based
[4] = tested on: Vesicular stomatitis virus; assay: Antiviral activity against Vesicular stomatitis virus infected in human A549 cells assessed as reduction in virus replication; type: functional, organism-based
Dengue virus [5] = assay: Antiviral activity against Dengue virus infected in human A549 cells assessed as reduction in virus replication; type: functional, organism-based
[6] = target: T1, Dihydroorotate dehydrogenase (quinone), mitochondrial; assay: Inhibition of human DHODH
West Nile virus = assay: Antiviral activity against West Nile virus infected in human A549 cells assessed as reduction in virus replication; type: functional, organism-based
Yellow fever virus = assay: Antiviral activity against Yellow fever virus infected in human A549 cells assessed as reduction in virus replication; type: functional, organism-based
Dengue virus [7] = assay: Antiviral activity against Dengue virus assessed as reduction in virus replication; type: functional, organism-based
[8] = Inhibition of Plasmodium falciparum DHODH
Human alphaherpesvirus 1 = assay: Antiviral activity against Herpes simplex viruses type 1; type: functional, organism-based
[9] = Antiviral activity against Human herpesvirus 6 type A; type: functional, Human herpesvirus 6A
Human alphaherpesvirus 2 = assay: Antiviral activity against Herpes simplex viruses type 2; type: functional, organism-based
Human alphaherpesvirus 3 = assay: Antiviral activity against Varicella zoster virus; type: functional, organism-based
Cytomegalovirus = assay: Antiviral activity against Cytomegalovirus; type: functional, organism-based; details: Human betaherpesvirus 5
[10] = Inhibition of Aspergillus fumigatus DHODH
[11] = Inhibition of Babesia bovis DHODH
[12] = Inhibition of Escherichia coli DHODH
[13] = Inhibition of Enterococcus faecalis DHODH
[14] = Selectivity index, ratio of IC50 for human DHODH to IC50 for Schistosoma mansoni DHODH

T1 sequence (Q02127 whole entry): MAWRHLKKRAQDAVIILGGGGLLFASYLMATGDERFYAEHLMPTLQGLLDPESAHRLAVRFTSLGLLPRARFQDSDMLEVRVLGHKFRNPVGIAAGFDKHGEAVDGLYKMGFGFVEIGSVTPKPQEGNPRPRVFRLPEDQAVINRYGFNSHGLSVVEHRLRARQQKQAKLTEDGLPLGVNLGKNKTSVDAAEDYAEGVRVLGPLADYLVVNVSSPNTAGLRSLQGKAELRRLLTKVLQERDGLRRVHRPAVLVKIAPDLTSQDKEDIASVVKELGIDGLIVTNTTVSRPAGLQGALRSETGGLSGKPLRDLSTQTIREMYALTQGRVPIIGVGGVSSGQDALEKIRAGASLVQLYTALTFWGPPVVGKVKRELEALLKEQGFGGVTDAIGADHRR

In the case of COc1ccc(-n2nc(C(=O)NCc3ccccc3)cc2C(=O)Nc2ccc(C(=O)N3CCCC3)cc2)cc1, the Ki [1] is reported as 26 nM and the MIC (Helicobacter pylori) is reported as 3 µg/mL (≈ 5.73 µM).

In the case of Cc1[nH]c2ccc(-c3nnc(SCC(=O)N4CCCC4)o3)cc2c1C, the IC50 [2] is reported as 1.13 µM.

With COC(=O)c1c(-c2c(Cl)cccc2Cl)noc1-c1cnn(-c2cccc(Cl)c2)c1C(F)(F)F the EC50 [3] was 2.4 nM, the EC50 [4] was 2.4 nM and the EC50 (Dengue virus [5]) was 2.4 nM. It also gave an IC50 [6] of 103 nM, an EC50 (West Nile virus) of 2.4 nM and an EC50 (Yellow fever virus) of 2.4 nM.

O=C(N[C@@H]1CCCc2c1[nH]c1ccc(Cl)cc21)c1ccccn1 showed a Ki [6] of 203 nM and an IC50 (Dengue virus [7]) of 13.3 nM.

With Cc1nc2cc(OC(F)(F)F)ccc2n1-c1ccc(C(=O)NC2CC2)s1 the IC50 [8] was 220 nM.

In the case of Cc1nc2c(OC(F)F)cccc2n1-c1ccc(C(=O)NC2CC2)s1, the IC50 [8] is reported as 220 nM.

With CCCCCCCCc1[nH]c2ccccc2c(=O)c1C the IC50 [1] was 4.55 µM.

For O=C(Nc1c(F)c(F)c(-c2cccc(OC(F)(F)F)c2)c(F)c1F)c1ccsc1C(=O)O [KIO-100], the IC50 (Human alphaherpesvirus 1) was > 10 µM, the IC50 [9] was 1.55 nM and the IC50 (Human alphaherpesvirus 2) was > 10 µM. For the same compound, the IC50 (Human alphaherpesvirus 3) was 3.55 nM and the IC50 (Cytomegalovirus) was 1500 nM.

In the case of Cc1cc(-c2ccccc2)c(C(=O)C(=O)Nc2ccc(N3CCN(c4ncc(F)cn4)CC3)cc2)n1C [OLOROFIM], the IC50 [6] is reported as > 100000 nM and the IC50 [10] is reported as 44 nM.

With O=C(NCc1cccnc1)c1cc(C(=O)Nc2ccccc2)n(-c2ccc(Cl)cc2)n1 the Ki [1] was 4 nM and the MIC (Helicobacter pylori) was 0.25 µg/mL (≈ 0.579 µM).

Cc1c(-c2ccc(-c3ccccc3F)cc2)nc2ccc(F)cc2c1C(=O)O [BREQUINAR] gave an IC50 [11] of 52.4 µM, an EC50 [3] of 78 nM and an EC50 [4] of 78 nM. For the same compound, the EC50 (Dengue virus [5]) was 78 nM, the EC50 (West Nile virus) was 78 nM and the EC50 (Yellow fever virus) was 78 nM.

Work on Cc1oncc1C(=O)Nc1ccc(C(F)(F)F)cc1 [LEFLUNOMIDE] yielded an IC50 [11] of 52.4 µM.

C[C@H](c1ccc(-c2ccccc2)cc1)N(C)C(=O)CSc1nnnn1-c1ccc(O)cc1 showed an IC50 [2] of 41 µM.

With O=c1sn(-c2ccccc2)c(=O)n1-c1ccc(F)cc1 the IC50 [12] was 840 nM, the IC50 [6] was > 100000 nM and the IC50 [13] was 75 nM.

With CSC(=NCn1c(C/C=C(\C)CCC=C(C)C)c(C)c(=O)c2ccccc21)SC the IC50 [1] was 11.1 µM.

For Cc1cc(Nc2ccc(S(F)(F)(F)(F)F)cc2)n2ncnc2n1, the IC50 [8] was 130 nM.

For O=C(NCc1ccccc1)c1cc(C(=O)Nc2ccccc2)n(-c2ccc(Cl)cc2)n1, the Ki [1] was 4 nM and the MIC (Helicobacter pylori) was 0.125 µg/mL (≈ 0.29 µM).

Work on COc1ccc(-n2nc(C(=O)Nc3ccccc3O)cc2C(=O)Nc2ccc(C(=O)N3CCCC3)cc2)cc1 yielded a Ki [1] of 50 nM.

Compound O=C1C(O)=C([C@H]2CC[C@H](c3ccc(Cl)cc3)CC2)C(=O)c2ccccc21 [ATOVAQUONE] has a Ratio IC50 [14] of 6, an IC50 [11] of 0.00238 µM and an IC50 [6] of 2600 nM.

In the case of Cc1nc2c(C#N)cccc2n1-c1ccc(C(=O)NC2CC2)s1, the IC50 [8] is reported as 50 nM.
